Literature values in PubChem BioAssay AID1259409 (Chemical Carcinogenesis Research Information System (CCRIS), 2018).

Test system: rodent chemically induced tumor inhibition, incidence and multiplicity
Assay: CCRIS tumor inhibitor studies

COc1cc(/C=C/C(=O)CC(=O)/C=C/c2ccc(O)c(OC)c2)ccc1O
tumour outcome (control, treated, inhibition, significance) (Carcinogen: 7,12-DIMETHYLBENZ[A]ANTHRACENE, 57-97-6, Dose [Inhibitor]: 10 UMOL IN MINERAL OIL APPLIED TO BUCCAL POUCH 3/WK BEGINNING 2 D AFTER LAST CARCINOGEN DOSE (STUDY DURATION: 24 WK), Route [Inhibitor]: MUCOUS MEMBRANE, Species: HAMSTER, Strain/Sex: SYRIAN/MALE, Target Tissue: Type of Lesion: BUCCAL POUCH: PAPILLOMA, Dose [Carcinogen]: 0.5% IN MINERAL OIL APPLIED TO BUCCAL POUCH 3'/WK FOR 6 WK, Promoter: NONE USED): 21/26 (80.7%), 20/26 (76.9%), 4.71%, not significant
tumour outcome (control, treated, inhibition, significance) (Carcinogen: 7,12-DIMETHYLBENZ[A]ANTHRACENE, 57-97-6, Dose [Inhibitor]: 10 UMOL IN MINERAL OIL APPLIED TO BUCCAL POUCH 3/WK BEGINNING 2 D AFTER LAST CARCINOGEN DOSE (STUDY DURATION: 24 WK), Route [Inhibitor]: MUCOUS MEMBRANE, Species: HAMSTER, Strain/Sex: SYRIAN/MALE, Target Tissue: Type of Lesion: BUCCAL POUCH: SQUAMOUS CELL CARCINOMA, Dose [Carcinogen]: 0.5% IN MINERAL OIL APPLIED TO BUCCAL POUCH 3'/WK FOR 6 WK, Promoter: NONE USED): 20/26 (76.9%), 13/26 (50%), 35%, p< 0.05
tumour outcome (control, treated, inhibition, significance) (Carcinogen: 7,12-DIMETHYLBENZ[A]ANTHRACENE, 57-97-6, Dose [Inhibitor]: 10 UMOL IN MINERAL OIL APPLIED TO BUCCAL POUCH 3/WK BEGINNING 2 D AFTER LAST CARCINOGEN DOSE (STUDY DURATION: 24 WK), Route [Inhibitor]: MUCOUS MEMBRANE, Species: HAMSTER, Strain/Sex: SYRIAN/MALE, Target Tissue: Type of Lesion: BUCCAL POUCH: TUMOR, Dose [Carcinogen]: 0.5% IN MINERAL OIL APPLIED TO BUCCAL POUCH 3'/WK FOR 6 WK, Promoter: NONE USED): 24/26 (92.3%), 20/26 (76.9%), 16.7%, not significant
tumour outcome (control, treated, inhibition, significance) (Carcinogen: 7,12-Dimethylbenzanthracene, 57-97-6, Dose [Inhibitor]: 1% as turmeric (equivalent to 0.05% curcumin) in diet, starting 15 d before carcinogen application to 12 wks after carci, Route [Inhibitor]: Diet, Species: Hamster, Strain/Sex: Syrian golden/Male, Target Tissue: Type of Lesion: Buccal (oral) tissues: Tumor, Dose [Carcinogen]: 0.5% in 0.1 ml oil 3 x wk for 12 wk, study duration 12 wk, Promoter: None): 100%, 55%, 45% at 12 wks (from table)
tumour outcome (control, treated, inhibition, significance) (Carcinogen: AZOXYMETHANE, 25843-45-2, Dose [Inhibitor]: 0, 0.5% COMMERCIAL GRADE CURCUMIN IN DIET FOR 35 WK BEGINNING 2 WK PRIOR TO CARCINOGEN TREATMENT (STUDY DURATION: 35 WK), Route [Inhibitor]: ORAL, Species: MOUSE, Strain/Sex: CF-1/FEMALE, Target Tissue: Type of Lesion: COLON: ADENOCARCINOMA, Dose [Carcinogen]: 10 MG/KG BW IN 100 µL NORMAL SALINE 1/WK FOR 6 WK, Promoter: NONE USED): 40%, 22%, 45%, not significant
tumour outcome (control, treated, inhibition, significance) (Carcinogen: AZOXYMETHANE, 25843-45-2, Dose [Inhibitor]: 0, 0.5% COMMERCIAL GRADE CURCUMIN IN DIET FOR 35 WK BEGINNING 2 WK PRIOR TO CARCINOGEN TREATMENT (STUDY DURATION: 35 WK), Route [Inhibitor]: ORAL, Species: MOUSE, Strain/Sex: CF-1/FEMALE, Target Tissue: Type of Lesion: COLON: ADENOMA, Dose [Carcinogen]: 10 MG/KG BW IN 100 µL NORMAL SALINE 1/WK FOR 6 WK, Promoter: NONE USED): 93%, 69%, 26%, not significant
tumour outcome (control, treated, inhibition, significance) (Carcinogen: AZOXYMETHANE, 25843-45-2, Dose [Inhibitor]: 0, 2% COMMERCIAL GRADE CURCUMIN IN DIET FOR 9 WK BEGINNING 2 WK PRIOR TO CARCINOGEN TREATMENT (STUDY DURATION: 35 WK), Route [Inhibitor]: ORAL, Species: MOUSE, Strain/Sex: CF-1/FEMALE, Target Tissue: Type of Lesion: COLON: ADENOCARCINOMA, Dose [Carcinogen]: 10 MG/KG BW IN 100 µL NORMAL SALINE 1/WK FOR 6 WK, Promoter: NONE USED): 40%, 9%, 78%, not significant
tumour outcome (control, treated, inhibition, significance) (Carcinogen: AZOXYMETHANE, 25843-45-2, Dose [Inhibitor]: 0, 2% COMMERCIAL GRADE CURCUMIN IN DIET FOR 9 WK BEGINNING 2 WK PRIOR TO CARCINOGEN TREATMENT (STUDY DURATION: 35 WK), Route [Inhibitor]: ORAL, Species: MOUSE, Strain/Sex: CF-1/FEMALE, Target Tissue: Type of Lesion: COLON: ADENOMA, Dose [Carcinogen]: 10 MG/KG BW IN 100 µL NORMAL SALINE 1/WK FOR 6 WK, Promoter: NONE USED): 93%, 61%, 34%, not significant
tumour outcome (control, treated, inhibition, significance) (Carcinogen: AZOXYMETHANE, 25843-45-2, Dose [Inhibitor]: 0, 2% COMMERCIAL GRADE CURCUMIN IN DIET FOR 26 WK BEGINNING 1 WK POST CARCINOGEN TREATMENT (STUDY DURATION: 35 WK), Route [Inhibitor]: ORAL, Species: MOUSE, Strain/Sex: CF-1/FEMALE, Target Tissue: Type of Lesion: COLON: ADENOCARCINOMA, Dose [Carcinogen]: 10 MG/KG BW IN 100 µL NORMAL SALINE 1/WK FOR 6 WK, Promoter: NONE USED): 40%, 24%, 40%, not significant
tumour outcome (control, treated, inhibition, significance) (Carcinogen: AZOXYMETHANE, 25843-45-2, Dose [Inhibitor]: 0, 2% COMMERCIAL GRADE CURCUMIN IN DIET FOR 26 WK BEGINNING 1 WK POST CARCINOGEN TREATMENT (STUDY DURATION: 35 WK), Route [Inhibitor]: ORAL, Species: MOUSE, Strain/Sex: CF-1/FEMALE, Target Tissue: Type of Lesion: COLON: ADENOMA, Dose [Carcinogen]: 10 MG/KG BW IN 100 µL NORMAL SALINE 1/WK FOR 6 WK, Promoter: NONE USED): 93%, 85%, 9%, not significant
tumour outcome (control, treated, inhibition, significance) (Carcinogen: AZOXYMETHANE, 25843-45-2, Dose [Inhibitor]: 0, 2% COMMERCIAL GRADE CURCUMIN IN DIET FOR 35 WK BEGINNING 2 WK PRIOR TO CARCINOGEN TREATMENT (STUDY DURATION: 35 WK), Route [Inhibitor]: ORAL, Species: MOUSE, Strain/Sex: CF-1/FEMALE, Target Tissue: Type of Lesion: COLON: ADENOCARCINOMA, Dose [Carcinogen]: 10 MG/KG BW IN 100 µL NORMAL SALINE 1/WK FOR 6 WK, Promoter: NONE USED): 40%, 0%, 100%, not significant
tumour outcome (control, treated, inhibition, significance) (Carcinogen: AZOXYMETHANE, 25843-45-2, Dose [Inhibitor]: 0, 2% COMMERCIAL GRADE CURCUMIN IN DIET FOR 35 WK BEGINNING 2 WK PRIOR TO CARCINOGEN TREATMENT (STUDY DURATION: 35 WK), Route [Inhibitor]: ORAL, Species: MOUSE, Strain/Sex: CF-1/FEMALE, Target Tissue: Type of Lesion: COLON: ADENOMA, Dose [Carcinogen]: 10 MG/KG BW IN 100 µL NORMAL SALINE 1/WK FOR 6 WK, Promoter: NONE USED): 93%, 68%, 27%, not significant
tumour outcome (control, treated, inhibition, significance) (Carcinogen: AZOXYMETHANE, 25843-45-2, Dose [Inhibitor]: 0, 2% PURE CURCUMIN IN DIET FOR 35 WK BEGINNING 2 WK PRIOR TO CARCINOGEN TREATMENT (STUDY DURATION: 35 WK), Route [Inhibitor]: ORAL, Species: MOUSE, Strain/Sex: CF-1/FEMALE, Target Tissue: Type of Lesion: COLON: ADENOCARCINOMA, Dose [Carcinogen]: 10 MG/KG BW IN 100 µL NORMAL SALINE 1/WK FOR 6 WK, Promoter: NONE USED): 40%, 14%, 65%, not significant
tumour outcome (control, treated, inhibition, significance) (Carcinogen: AZOXYMETHANE, 25843-45-2, Dose [Inhibitor]: 0, 2% PURE CURCUMIN IN DIET FOR 35 WK BEGINNING 2 WK PRIOR TO CARCINOGEN TREATMENT (STUDY DURATION: 35 WK), Route [Inhibitor]: ORAL, Species: MOUSE, Strain/Sex: CF-1/FEMALE, Target Tissue: Type of Lesion: COLON: ADENOMA, Dose [Carcinogen]: 10 MG/KG BW IN 100 µL NORMAL SALINE 1/WK FOR 6 WK, Promoter: NONE USED): 93%, 62%, 33%, not significant
